# Reference: patent US20090247554A1, “KINASE INHIBITORS” (TAKEDA SAN DIEGO, INC., priority 2006, published 2009)
# Molecular target: T1, Aurora A Kinase (Homo sapiens, UniProt O14965)
# T1 sequence (O14965 1-403): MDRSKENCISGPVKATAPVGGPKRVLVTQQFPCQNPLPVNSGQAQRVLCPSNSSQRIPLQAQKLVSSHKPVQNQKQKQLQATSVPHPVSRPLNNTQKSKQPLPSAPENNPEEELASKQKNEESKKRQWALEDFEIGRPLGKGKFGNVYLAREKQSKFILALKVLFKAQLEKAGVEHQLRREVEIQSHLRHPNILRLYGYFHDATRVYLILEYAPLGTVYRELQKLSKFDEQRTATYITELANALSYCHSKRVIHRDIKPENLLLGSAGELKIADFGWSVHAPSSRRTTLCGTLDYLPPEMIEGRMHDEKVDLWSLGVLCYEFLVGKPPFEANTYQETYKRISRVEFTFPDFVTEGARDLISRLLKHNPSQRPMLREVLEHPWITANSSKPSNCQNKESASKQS
# Experiment: Determination of inhibition of AIK (Aurora A kinase) by direct fluorescence polarization (IMAP)
# Assay type: biochemical
# Settings: read-out: IC50 of Exemplified Compounds Against Aurora A Kinase
# Description: A. Determination of Inhibition of AIK
# The inhibitory properties of compounds relative to AIK may be determined by the Direct Fluorescence Polarization detection method (FP) using a Greiner small volume black 384-well-plate format under the following reaction conditions: 50 mM Hepes pH 7.3, 10 mM MgCl2, 10 mM NaCl, 1 mM DTT, 0.01% Brij35, 100 nM Fluorescein-LRRASLG peptide (provided by SYNPEP), 5% DMSO, 2.5 uM ATP. Detection of the reaction product is performed by addition of IMAP binding reagent (Molecular Devices). Reaction product may be determined quantitatively by FP using an Analyst HT plate reader (Molecular Devices) with an excitation wavelength at 485 nm and emission at 530 nm and using a Fluorescein 505 dichroic mirror.
# The assay reaction may be initiated as follows: 2 ul of (3×) 300 nM Fl-Peptide/7.5 uM ATP was added to each well of the plate, followed by the addition of 2 ul of (3×) inhibitor (2.5 fold serial dilutions for 11 data points for each inhibitor) containing 15% DMSO. 2 ul of (3×) 7.5 nM AIK solution may be added to initiate the reaction (final enzyme concentration was 2.5 nM for AIK). The reaction mixture may then be incubated at room temperature for 45 min, and quenched and developed by addition of 20 ul of 1 to 400 diluted IMAP binding reagent in 1× proprietary IMAP binding buffer. Fluorescence polarization readings of the resulting reaction mixtures may be measured after a 60-minute incubation at room temperature.
# IC50 values may be calculated by non-linear curve fitting of the compound concentrations and fluorescent polarization values to the standard IC50 equation.
row,SMILES,IC50 [nM]
1,"CCS(=O)(=O)n1cc(CN(C)C)c2ccc(-c3nc(Nc4cc(C)[nH]n4)c4cc(C)sc4n3)cc21 [Example 4, 2-(3-((dimethylamino)methyl)-1-(ethylsulfonyl)-1H-indol-6-yl)-6-methyl-N-(5-methyl-1H-pyrazol-3-yl)thieno[2,3-d]pyrimidin-4-amine]",≤ 50
2,"CCS(=O)(=O)c1cccc(-c2nc(Nc3cc(C)[nH]n3)c3cc(C)sc3n2)c1 [Example 7, 2-(3-(ethylsulfonyl)phenyl)-6-methyl-N-(5-methyl-1H-pyrazol-3-yl)thieno[2,3-d]pyrimidin-4-amine]",≤ 50
3,"CCS(=O)(=O)c1cccc(-c2nc(Nc3cc(C)[nH]n3)c3cscc3n2)c1 [Example 5, [2-(3-Ethanesulfonyl-phenyl)-thieno[3,4-d]pyrimidin-4-yl]-(5-methyl-1H-pyrazol-3-yl)-amine]",≤ 50
4,"Cc1cc(Nc2nc(Sc3ccc(NC(=O)C4CC4)cc3)nc3sc(C)cc23)n[nH]1 [Example 8, N-(4-(6-Methyl-4-(5-methyl-1H-pyrazol-3-ylamino)thieno[2,3-d]pyrimidin-2-ylthio)phenyl)cyclopropanecarboxamide]",≤ 50
5,"CCS(=O)(=O)n1ccc2ccc(-c3nc(Nc4cc(C)[nH]n4)c4cc(C)sc4n3)cc21 [Example 3, 2-(1-(ethylsulfonyl)-1H-indol-6-yl)-6-methyl-N-(5-methyl-1H-pyrazol-3-yl)thieno[2,3-d]pyrimidin-4-amine]",≤ 50
6,"CCS(=O)(=O)n1ccc2ccc(-c3nc(Nc4cc(C)[nH]n4)c4cscc4n3)cc21 [Example 6, [2-(1-Ethanesulfonyl-1H-indol-6-yl)-thieno[3,4-d]pyrimidin-4-yl]-(5-methyl-1H-pyrazol-3-yl)-amine]",≤ 50
